We go through six compounds from PubChem BioAssay AID2060327 (Molecular Pharmacology Branch, DTP, NCI, 2025).

Where “and” joins values, the source holds several entries; their conditions need not be identical. Equal values may be shown once.

The assay concerns PC-3 multi-cell spheroids, viability. Briefly: Anticancer human tumor PC-3 cell line growth inhibition [IpAb].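 For all read-outs here: spheroids exposed to compounds for 7 days before readout.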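 For viability, T/C: 100% = DMSO vehicle control wells.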 The following applies: for viability, T/C: stronger effect = lower value. In outline:
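Combinations with ipatasertib or abemaciclib were tested on tumour spheroids holding HUVEC (25%) and MSC (15%) alongside 60% malignant cells. Top concentration was at or near clinical Cmax (10 microM if undefined), descending in half-log steps.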

[1] abbreviates: curve of first compound, second compound 0.1 µM.
[2] abbreviates: curve of first compound, second compound 0.316 µM.
The mark [3] stands for this setting: curve of first compound, second compound 1 µM.
Setting [4] is: curve of first compound, second compound 3.16 µM.
The mark [5] stands for this setting: curve of first compound, second compound 10 µM.
Setting [6] is: second compound 0.1 µM, first compound 0.0316 µM.
The mark [7] stands for this setting: second compound 0.1 µM, first compound 0.1 µM.
Where [8] appears, read: second compound 0.1 µM, first compound 0.316 µM.
Where [9] appears, read: second compound 0.1 µM, first compound 1 µM.
Where [10] appears, read: second compound 0.1 µM, first compound 3.16 µM.
Setting [11] is: second compound 0.1 µM, first compound 10 µM.
Where [12] appears, read: second compound 0.316 µM, first compound 0.0316 µM.
Where [13] appears, read: second compound 0.316 µM, first compound 0.1 µM.
[14] abbreviates: second compound 0.316 µM, first compound 0.316 µM.
Where [15] appears, read: second compound 0.316 µM, first compound 1 µM.
Setting [16] is: second compound 0.316 µM, first compound 3.16 µM.
The mark [17] stands for this setting: second compound 0.316 µM, first compound 10 µM.
[18] abbreviates: second compound 1 µM, first compound 0.0316 µM.
Setting [19] is: second compound 1 µM, first compound 0.1 µM.
Setting [20] is: second compound 1 µM, first compound 0.316 µM.
Where [21] appears, read: second compound 1 µM, first compound 1 µM.
Where [22] appears, read: second compound 1 µM, first compound 3.16 µM.
Where [23] appears, read: second compound 1 µM, first compound 10 µM.

What is called IC50 is the concentration needed to halve the response being measured. One may read the viability, T/C as the ratio of treated to control. Regarding `C=CC(=O)N1CCN(c2nc(=O)n(-c3c(C)ccnc3C(C)C)c3nc(-c4c(O)cccc4F)c(F)cc23)C(C)C1` (stereo unspecified) + CC(C)NCC(C(=O)N1CCN(c2ncnc3c2C(C)CC3O)CC1)c1ccc(Cl)cc1, the IC50 is, setting by setting: under setting [1], more than 10000 nM; under setting [2], less than 31.6 nM; under setting [3], less than 31.6 nM; under setting [4], less than 31.6 nM; under setting [5], less than 31.6 nM. Moreover, the viability, T/C runs as follows: under setting [6], 82%; under setting [7], 73.5%; under setting [8], 72.8%; under setting [9], 83.6%; under setting [10], 99.1%; under setting [11], 87.2%. For the same compound, the viability, T/C is, setting by setting: under setting [12], 44.4%; under setting [13], 44.4%; under setting [14], 43.7%; under setting [15], 34.7%; under setting [16], 41.7%; under setting [17], 43.1%. The viability, T/C runs as follows: under setting [18], 26.5%; under setting [19], 27.1%; under setting [20], 27%; under setting [21], 25.8%; under setting [22], 26.3%; under setting [23], 23.2%. Moreover, the viability, T/C was 15.1% (second compound 3.16 µM, first compound 0.0316 µM); 15% (second compound 3.16 µM, first compound 0.1 µM); 15.5% (second compound 3.16 µM, first compound 0.316 µM); 15.6% (second compound 3.16 µM, first compound 1 µM); 17.1% (second compound 3.16 µM, first compound 3.16 µM); 13.1% (second compound 3.16 µM, first compound 10 µM). Also, the viability, T/C reads like this: (second compound 10 µM, first compound 0.0316 µM) 14.6%; (second compound 10 µM, first compound 0.1 µM) 13.7%; (second compound 10 µM, first compound 0.316 µM) 13.4%; (second compound 10 µM, first compound 1 µM) 14%; (second compound 10 µM, first compound 3.16 µM) 14.5%; (second compound 10 µM, first compound 10 µM) 7.96%.

Turning to `Cc1nc(NC(=O)N2CCCC2C(N)=O)sc1-c1ccnc(C(C)(C)C(F)(F)F)c1` (stereo unspecified) + CCN1CCN(Cc2ccc(Nc3ncc(F)c(-c4cc(F)c5nc(C)n(C(C)C)c5c4)n3)nc2)CC1, the IC50 worked out at 1120 nM (curve of first compound, second compound 0.01 µM); 1380 nM (curve of first compound, second compound 0.0316 µM); 489 nM under setting [1]; 523 nM under setting [2]; 172 nM under setting [3]. The viability, T/C reads like this: (second compound 0.01 µM, first compound 0.0316 µM) 68.2%; (second compound 0.01 µM, first compound 0.1 µM) 48.2%; (second compound 0.01 µM, first compound 0.316 µM) 50.6%; (second compound 0.01 µM, first compound 1 µM) 51.2%; (second compound 0.01 µM, first compound 3.16 µM) 43.4%; (second compound 0.01 µM, first compound 10 µM) 13.6%. For the same compound, the viability, T/C was 54.5% (second compound 0.0316 µM, first compound 0.0316 µM); 52.7% (second compound 0.0316 µM, first compound 0.1 µM); 58.6% (second compound 0.0316 µM, first compound 0.316 µM); 53.9% (second compound 0.0316 µM, first compound 1 µM); 39.1% (second compound 0.0316 µM, first compound 3.16 µM); 11.1% (second compound 0.0316 µM, first compound 10 µM). The viability, T/C was 49% under setting [6]; 55.5% under setting [7]; 51.2% under setting [8]; 47.5% under setting [9]; 32.9% under setting [10]; 11.5% under setting [11]. Moreover, the viability, T/C was 59.4% under setting [12]; 63.2% under setting [13]; 55.6% under setting [14]; 41.5% under setting [15]; 27.8% under setting [16]; 11.9% under setting [17]. Also, the viability, T/C runs as follows: under setting [18], 62%; under setting [19], 53.6%; under setting [20], 45.9%; under setting [21], 29.6%; under setting [22], 20.6%; under setting [23], 14.4%.

For `CC(C)n1nc(-c2ccc3oc(N)nc3c2)c2c(N)ncnc21`, the viability, T/C runs as follows: (compound 0.000316 µM) 93% and 98.7%; (compound 0.001 µM) 55.6% and 81.3%; (compound 0.00316 µM) 42.7% and 57.6%; (compound 0.01 µM) 25.8% and 25%; (compound 0.0316 µM) 11.9% and 12.8%; (compound 0.1 µM) 9.65% and 10.2%. Moreover, for the setting “curve of compound”, the IC50 was 1.71 nM and 3.89 nM.

As for `CC1(C)CCC(CN2CCN(c3ccc(C(=O)NS(=O)(=O)c4ccc(NCC5CCOCC5)c([N+](=O)[O-])c4)c(Oc4cnc5[nH]ccc5c4)c3)CC2)=C(c2ccc(Cl)cc2)C1`, the viability, T/C by setting is: (compound 0.0316 µM) 105% and 102%; (compound 0.1 µM) 107% and 108%; (compound 0.316 µM) 105% and 112%; (compound 1 µM) 107% and 108%; (compound 3.16 µM) 85.4% and 109%; (compound 10 µM) 3.66% and 4.01%. In addition, the 50% inhibitory concentration (IC50) (curve of compound) was 5210 nM and 6000 nM.

For the compound `CC(=O)c1c(C)c2cnc(Nc3ccc(N4CCNCC4)cn3)nc2n(C2CCCC2)c1=O` + CC(C)NCC(C(=O)N1CCN(c2ncnc3c2C(C)CC3O)CC1)c1ccc(Cl)cc1, the IC50 is more than 300 nM under setting [1]; less than 0.949 nM under setting [2]; less than 0.949 nM under setting [3]; less than 0.949 nM under setting [4]; less than 0.949 nM under setting [5]. The viability, T/C was 74.1% (second compound 0.1 µM, first compound 0.000949 µM); 63.7% (second compound 0.1 µM, first compound 0.003 µM); 51% (second compound 0.1 µM, first compound 0.00949 µM); 51.6% (second compound 0.1 µM, first compound 0.03 µM); 52.9% (second compound 0.1 µM, first compound 0.0949 µM); 48.2% (second compound 0.1 µM, first compound 0.3 µM). In addition, the viability, T/C runs as follows: (second compound 0.316 µM, first compound 0.000949 µM) 44.5%; (second compound 0.316 µM, first compound 0.003 µM) 43.3%; (second compound 0.316 µM, first compound 0.00949 µM) 43.8%; (second compound 0.316 µM, first compound 0.03 µM) 40.1%; (second compound 0.316 µM, first compound 0.0949 µM) 33.8%; (second compound 0.316 µM, first compound 0.3 µM) 30.7%. Also, the viability, T/C (second compound 1 µM, first compound 0.000949 µM) is 26.3%; the viability, T/C (second compound 1 µM, first compound 0.003 µM) was 23.8%; the viability, T/C (second compound 1 µM, first compound 0.00949 µM) was 19.6%; the viability, T/C (second compound 1 µM, first compound 0.03 µM) was 17.2%; the viability, T/C (second compound 1 µM, first compound 0.0949 µM) is 15.8%; the viability, T/C (second compound 1 µM, first compound 0.3 µM) is 14.8%. Also, the viability, T/C runs as follows: (second compound 3.16 µM, first compound 0.000949 µM) 15.3%; (second compound 3.16 µM, first compound 0.003 µM) 14.2%; (second compound 3.16 µM, first compound 0.00949 µM) 14.2%; (second compound 3.16 µM, first compound 0.03 µM) 13.3%; (second compound 3.16 µM, first compound 0.0949 µM) 11.3%; (second compound 3.16 µM, first compound 0.3 µM) 10.7%. Moreover, the viability, T/C (second compound 10 µM, first compound 0.000949 µM) was 13.5%; the viability, T/C (second compound 10 µM, first compound 0.003 µM) was 12.9%; the viability, T/C (second compound 10 µM, first compound 0.00949 µM) is 12.5%; the viability, T/C (second compound 10 µM, first compound 0.03 µM) was 11.6%; the viability, T/C (second compound 10 µM, first compound 0.0949 µM) was 11.5%; the viability, T/C (second compound 10 µM, first compound 0.3 µM) was 10.8%.

On to `CC(C)(C)c1cnc(CSc2cnc(NC(=O)C3CCNCC3)s2)o1`, for which the viability, T/C (compound 0.00949 µM) was 100% and 112%; the viability, T/C (compound 0.03 µM) is 119% and 114%; the viability, T/C (compound 0.0949 µM) is 108% and 120%; the viability, T/C (compound 0.3 µM) is 16.7% and 4.98%; the viability, T/C (compound 0.949 µM) is 6.38% and 6.26%; the viability, T/C (compound 3 µM) is 6.95% and 7.36%. Besides, the half-maximal inhibitory concentration (IC50) (curve of compound) is 197 nM and 189 nM.
